The values below come from patent US20030114434A1, “EXTENDED DURATION LIGHT ACTIVATED CANCER THERAPY” (priority 1999, published 2003).

The conditions of series [1]: systemic clinical use; cited from earlier work.
For series [2], the system named is colon carcinoma tumor mass. Briefly: Extended duration PDT of a colon carcinoma tumor mass in a patient, implanted LED probes. It counts as in vivo, human. An excerpt:
A patient in the terminal phase of recurrent malignant colon cancer having undergone chemotherapy and irradiation therapy, presented with a protruding colon carcinoma tumor mass of approximately 500 grams and approximately 13 cm in diameter, which extended through the patient's dermis. Due to the advanced state of the patient's disease and due to the highly vascularized nature of this tumor mass, resection was not feasible. Further, this large tumor mass presented a significant amount of pain and discomfort to the patient, as well as greatly impairing the patient's ability to lie flat.
Six separate light source probes, each including a linear array of LEDs, were surgically implanted in this large human tumor using standard surgical procedures. A single dose of a photosensitizer agent (aminolevulinic acid (ALA) at 60 mg/kg) was provided by oral administration to the patient. Following a period of five hours to permit sufficient clearance of the photosensitizing agent from healthy tissues, light irradiation was administered. An intensity of about 25-30 mW of light from each light source probe (650 nm peak wavelength) was delivered to the tumor for 40 hours. […] The total fluence delivered to the tumor bed during this single extended duration treatment was in excess of 20,000 Joules.
The fluence rate employed in this Example represented about 150-180 mW/cm^2, with a total fluence more than 20,000 Joules.

Series [3] relates to transplanted human tumors. Nature of the series: Nude mice with established transplanted human tumors, photosensitizer injected, low fluence light 72 hours. It counts as in vivo. Particulars: for tumor necrosis: 660 nm light 72 hours, 30 microwatts per cm^2, after 7 days, two mice. Here is the method:
(§1) A series of experiments were performed using nude mice growing transplanted human tumors. The mice are injected with various photosensitizers and the tumors illuminated with low fluence of only 30 uW of light over a 72 hour time period. Extended tumor necrosis was observed.
(§2) All control nude mice were injected with the PDT drug (intratumor or intraperitoneal) and 5 million human carcinoma cells which developed a tumor mass. These mice were kept in a darkened environment.
(§3) Another two mice with established tumors were injected with 50-100 micrograms of Pheophorbide A into the lesion and exposed to 660 nm light (30 microwatts per cm^2) for 72 hours.
(§4) Two experimental mice were injected with epithelial cancer cells preincubated with 20 micrograms of Chlorin e6. […] Another two mice were injected with 100-150 micrograms of Chlorin e6 intratumorally and then exposed to 660 nm light (30 microwatts per cm^2) for 72 hours.
Five experimental mice bearing established tumors were injected with 1 mg Hpd intraperitoneally followed by exposure to 630 nm (peak) light (30 microwatts per cm^2) for 72 hours. […] There was no effect observed on control animals maintained in the absence of light (dark control mice).

The next series relates to epithelial cancer cells. Briefly: Nude mice injected with epithelial cancer cells preincubated with photosensitizer, low fluence light. It counts as in vivo. Particulars: for tumor growth: 660 nm light 48 hours, two mice. Here is the method: as §1, §2, §3, §4
For series [4] the following is noted: cited from earlier work.

Where “and” joins values, the source holds several entries; their conditions need not be identical. Equal entries are not always repeated.

As to `CCOC(=O)C1=Cc2c3nc(cc4nc(cc5[n-]c(cc6[n-]c2c(C)c6CC)c(C)c5CC)C(C)=C4CC)[C@@H](C)[C@]13CC.[Cl-].[Cl-].[Sn]` (racemic) [PURLYTIN], the “duration of dermal photosensitivity” value in series [1] is on record as “at least several weeks”.

Turning to `NCC(=O)CCC(=O)O` [ALA, aminolevulinic acid], in series [2] (ALA 60 mg/kg oral, after 40 hours of PDT), the “collateral damage to surrounding normal tissue” value is on record as “no collateral damage”. In series [2] (ALA 60 mg/kg oral, light from 5 hours after dose, 650 nm, 40 hours of PDT, total fluence >20,000 Joules), the “radius of extensive tumor necrosis from each light source probe” value is “greater than 5 cm”. Besides, the “reduction of tumor tissue (necrotic tissue debrided)” value in series [2] (over four weeks following PDT) is “approximately 500 grams”.

With `C=Cc1c(C)c2cc3nc(c(CC(=O)O)c4[nH]c(cc5nc(cc1[nH]2)C(C)=C5CC)c(C)c4C(=O)O)[C@@H](CCC(=O)O)[C@@H]3C` [Chlorin e6], in series [3] (100-150 micrograms intratumorally), the tumor necrosis entry is listed as “Extensive tumor necrosis”. For the same compound, the “tumor growth, dark control” value with epithelial cancer cells (Chlorin e6 experiment, absence of light) was “developed a large tumor”. Besides, in the series with epithelial cancer cells (cells preincubated with 20 micrograms, 30 microwatts per cm^2, after 1.5 months), the tumor growth entry is “no tumor growth”.

In the case of `Oc1cccc(-c2c3nc(c(-c4cccc(O)c4)c4ccc([nH]4)c(-c4cccc(O)c4)c4nc(c(-c5cccc(O)c5)c5ccc2[nH]5)CC4)C=C3)c1` [FOSCAN], in series [1], the “duration of dermal photosensitivity” value was “at least several weeks”.

Take `CC(=O)[O-].CC(=O)[O-].CCc1c(CC)c2cc3nc(cnc4cc(OCCOCCOCCOC)c(OCCOCCOCCOC)cc4ncc4nc(cc1[n-]2)C(CCCO)=C4C)C(C)=C3CCCO.O.[Lu+3]` [Lutrin, lutetium texaphyrin]: the “time for clearance from normal tissues (predominant amount)” value in series [4] (from administration) is given as “about 24 hours”. In addition, in series [4] (from time of administration), the “time tumor tissue retains the agent” value is 48 to 96 h and 24 to 96 h. In addition, in series [4] (in vivo), the “time at which a larger proportion clears from normal tissue” value is given as “about 8 hours”, the “time at which a proportion begins to clear from normal tissue” value is reported as “about 3 hours” and the “time at which an even greater proportion clears from normal tissue” value is on record as “about 16 hours”.

On to Pheophorbide A, for which the tumor necrosis entry in series [3] (50-100 micrograms into the lesion) is listed as “Extensive tumor necrosis”. Besides, the “effect on tumor, dark control” value in series [3] (Pheophorbide A experiment, absence of light) is “no effect”. Besides, in the series with epithelial cancer cells (Pheophorbide A experiment, maintained in the absence of light), the “tumor growth, dark control” value was “developed a large tumor”. The tumor growth entry with epithelial cancer cells (cells preincubated with 10 micrograms, 30 microwatts per cm2, after 1.5 months) was “no tumor growth”.

Consider sodium porfimer [PHOTOFRIN], for which the “duration of dermal photosensitivity” value in series [1] was “up to six weeks”.
